Reference: patent USRE35904E, “Method and probes for detecting nucleoside transporter and method for producing the probes” (Governors of the University of Alberta, priority 1995, dated 1998)

Legend:
[1] = target: T1, es nucleoside transporter (Mus musculus, UniProt Q9JIM1); experiment: Flow cytometric staining of L1210/B23.1 cells (es nucleoside transporter-expressing) by SAENTA-fluorescein probe; assay type: cell-based
T1 construct: endogenous in cells; host or cells: L1210/B23.1 mouse leukemia cells
T1 sequence (Q9JIM1 1-460): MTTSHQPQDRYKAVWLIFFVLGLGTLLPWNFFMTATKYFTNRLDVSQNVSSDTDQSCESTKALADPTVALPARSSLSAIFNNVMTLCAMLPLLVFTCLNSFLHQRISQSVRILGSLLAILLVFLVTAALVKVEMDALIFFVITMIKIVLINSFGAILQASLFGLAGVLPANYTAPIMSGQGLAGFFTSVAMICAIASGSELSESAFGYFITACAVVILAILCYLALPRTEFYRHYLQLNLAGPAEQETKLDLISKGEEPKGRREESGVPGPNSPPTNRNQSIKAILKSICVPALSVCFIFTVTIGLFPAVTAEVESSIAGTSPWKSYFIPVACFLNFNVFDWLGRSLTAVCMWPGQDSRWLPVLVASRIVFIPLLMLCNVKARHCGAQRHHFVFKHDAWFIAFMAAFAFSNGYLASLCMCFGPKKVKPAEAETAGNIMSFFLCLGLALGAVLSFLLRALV
Description: (§1) Flow cytometric measurements of binding of .[.SAENTA-x2 -fluorescein.]. .Iadd.SAENTA-X2-fluorescein .Iaddend.prepared as in Example 3 was carried out as in Example 4 using two clonal lines of cultured mouse leukemia L 1210 cells, L 1210/B23.1 and L 1210/MA-27.1. L 1210/B23.1 expresses NBMPR binding sites and nuclesoside transporter activity whereas L 1210/MA-27.1 cells lack both of these features.
(§2) Staining conditions were chosen to minimise non-specific fluorescence signals from L 1210/MA-27.1 cells treated with the nucleoside.
(§3) Cells were exposed for 10 min at 4° C. to phosphate-buffered (pH 8.0) salts medium containing 40 nM .[.5(SAENTA-xx2)fluorescein.]. .Iadd.5-(SAENTA-X2)-fluorescein .Iaddend.prior to flow cytometric analysis in a BD FACSan instrument; 10^5 cells were analysed. Cells in replicate assay mixtures were also exposed for 5 min at 22° C. to medium containing 10 μM NBMPR and then for 10 min at 4° C. to medium containing both NBMPR and .[.5-SAENTA-x2)-fluorescein.]. .Iadd.5-(SAENTA-X2)-fluorescein.Iaddend..
(a) Clonal lines of mouse leukemia cells were exposed for 10 min at 4° C. to phosphate buffered (pH 8.0) saline containing […] .[.5-(SAENTA-x2)-fluorescein.]. .Iadd.5-(SAENTA-X2)-fluorescein .Iaddend.(prepared as in Example 3) prior to flow cytometric analysis in a BD FACScan instrument; 10^4 cells were analysed. Cells in replicate mixtures were also exposed for 5 min at 22° C. to medium containing 10 μM NBMPR and then for 10 min at 4° C. to medium containing both NBMPR and .[.5-(SAENTA-x2)-fluorescein.]. .Iadd.5-(SAENTA-X2)-fluorescein.Iaddend.. L 1210/B23.1 cells express the es nucleoside transport system whereas L 1210/MA-27.1 cells lack that activity.

L 1210/MA-27.1 cells = experiment: Flow cytometric staining of L1210/MA-27.1 cells (lacking es nucleoside transporter); assay type: cell-based, mouse; conditions: with or without NBMPR pretreatment, FIG. 9
Description: as §1, §2, §3
(a) Clonal lines of mouse leukemia cells were exposed for 10 min at 4° C. to phosphate buffered (pH 8.0) saline containing […] .[.5-(SAENTA-x2)-fluorescein.]. .Iadd.5-(SAENTA-X2)-fluorescein .Iaddend.(prepared as in Example 3) prior to flow cytometric analysis in a BD FACScan instrument; 10^4 cells were analysed. […]

[2] = target: T1, es nucleoside transporter; experiment: Concentration-dependence of fluorescent staining of L1210/B23.1 cells by flow cytometry; assay type: cell-based; conditions: 40 min, 4° C., pH 8.0, autofluorescence 298
Description: (b) Concentration-dependence of fluorescent staining of L 1210/23.1 cells by .[.5-(SAENTA-x2)-fluorescein.]. .Iadd.5-(SAENTA-X2)-fluorescein .Iaddend.was measured and the results are set out in Table 4.
Cells in PBS at pH 8.0 were incubated with the listed concentrations of the SAENTA-fluor probe at 4° C. for 40 min prior to flow cytometric analysis.

[3] = target: T1, es nucleoside transporter; experiment: [3H]NBMPR equilibrium binding to L1210/B23.1 cells and its inhibition by SAENTA-fluorescein probes; conditions: 22°, replots of Kd(app)/Bmax versus [probe], read-out: Ki (mean ± S.D.)
[4] = tested on: es nucleoside transporter; conditions: Gati et al. 1987; cited from earlier work

staining of L1210/B23.1 cells ([1]; 40 mM (so in the source), 10 min, 4° C., pH 8.0, FIG. 9)	Fluorescence intensity ([2]; 5 nM)	Fluorescence intensity ([2]; 10 nM)	Fluorescence intensity ([2]; 20 nM)	Fluorescence intensity ([2]; 40 nM)	Fluorescence intensity ([2]; 60 nM)	Fluorescence intensity ([2]; 80 nM)	Fluorescence intensity ([2]; 160 nM)	Fluorescence intensity ([2]; 320 nM)	Fluorescence intensity ([2]; 640 nM)	Fluorescence intensity ([2]; 1280 nM)	Ki [3]	Compound	specificity of staining of the cell lines ([1]; L1210/B23.1 versus L1210/MA27.1, FIG. 9)	fluorescence of L1210/MA27.1 cells after staining compared with autofluorescence (L 1210/MA-27.1 cells)	non-specific adsorption [4]
stained 1210/B23.1 cells	301 mean channel no.	344 mean channel no.	372 mean channel no.	407 mean channel no.	427 mean channel no.	429 mean channel no.	497 mean channel no.	601 mean channel no.	691 mean channel no.	761 mean channel no.	17 ± 8 nM	O=C1OC2(c3ccc(O)cc3Oc3cc(O)ccc32)c2ccc(NC(=S)NCCSC[C@H]3O[C@@H](n4cnc5c(NCc6ccc([N+](=O)[O-])cc6)ncnc54)[C@H](O)[C@@H]3O)cc21 [5-(SAENTA-X2)-fluorescein, 5'-S-[2-(Fluorescein-5-thioureidyl)ethyl]-N^6-(4-nitrobenzyl)-5'-thioadenosine]	specific for the es nucleoside transporter system	very similar	–
–	–	–	–	–	–	–	–	–	–	–	–	[^125 I]Iodohydroxynitrobenzylthioinosine [[125I]Iodohydroxynitrobenzylthioinosine]	–	–	high non-specific adsorption
